This note sets out measurements from publication PMC9440176, “Novel benzylidene benzofuranone analogues as potential anticancer agents: design, synthesis and in vitro evaluation based on CDK2 inhibition assays” (3 Biotech, 2022).

Assay [1] concerns the target CDK2/Cyclin A (Homo sapiens, UniProt P24941). The assay can be described thus: CDK2/cyclin A inhibitory assay, Z'-LYTE FRET kinase assay. The format is biochemical. The note with it: concentration of 100 micro molar; 1000 ng/ml kinase, 1000 µM ATP. From the text: Z’-LYTE® technology involves homogeneous assay design based on FRET and is a universal platform for both screening as well as profiling protein kinases. The assay uses a peptide substrate labeled with two different fluorophores, coumarin donor and fluorescein acceptor on each end. These two fluorophores make up a FRET pair, which allows the transfer of energy when both are present on the same molecule. The initial kinase reaction transfers the ϒ-phosphate of ATP to a tyrosine or serine/threonine residue on the substrate. In a secondary reaction, referred to as the development reaction, a site-specific protease recognizes and cleaves only non-phosphorylated peptide, while phosphorylated substrate remains uncleaved. […] Upon excitation of Coumarin at 400 nm, the FRET signal is measured as a ratio between the Coumarin donor emission at 445–460 nm and the fluorescein acceptor emission at 520–535 nm(Lebakken et al. [2007]).
Initial ten-fold and two-fold dilutions of Kinase and ATP concentrations were used to choose the optimal Kinase and ATP concentration based on the % Phosphorylation.
The assay was carried out according to the kit instructions (384 well format). Briefly, 5X kinase buffer [250 mM HEPES (pH 7.5), 50 mM MgCl2, 5 mM EGTA, 0.05% BRIJ-35] was diluted to 1X using distilled water. The phosphor peptide positive control (Z’-LYTE® Tyr 4 phospho-peptide) and the non-phosphorylated negative control (Z’-LYTE® Tyr 4 peptide) were then diluted to 1:500 with 1× kinase buffer to 2 μM. […] Working development solution was then made by diluting 12 μL of the provided stock solution with 388 μL of the provided development buffer. Aliquots (20 μL) of each peptide mixture were then added to the wells of a Corning 3914 solid white microplate in replicates of 8. The development reaction was initiated by the addition of 10 μL of working development-solution to all the wells. Further, the plates were allowed to incubate at room temperature for 60 min. Reactions were then stopped by the addition of 10 μL of stop solution (Jia et al. [2008]).
Reactions were quantitated using a Tecan Robotic Microplate Reader. Reader control, blank subtraction, ratio metric calculations and finally graph plotting were carried out using Gen5™ Data Analysis Software.
The CDK2/Cyclin A assay was carried out as per the manufacturer’s instruction using suitable controls and standard.
The inhibitory assay was carried out using the stock of 10 mM in DMSO. Samples were further serially diluted to obtain concentrations of 100 μM. The concentrations were chosen based on the IC50 values obtained in the MTT assay. A total of 23 analogues were selected for the assay based on their antiproliferative activity. Further, selected compounds were screened and tested against the target CDK2/Cyclin A, and their % phosphorylation and % inhibition were recorded.

Assay [2] relates to normal epithelial kidney cells (Vero). Put plainly: MTT cytotoxicity assay on Vero. The format is cell-based. The note with it: 24 h, read-out: Inhibition of cell proliferation, IC50, Vero. How it is done: (§1) The monolayer cell culture was trypsinized and the cell count was adjusted to 5.0 × 10^5 cells/ml using respective media containing 10% FBS. To each well of the 96-well microtiter plate, 100 µL of the diluted cell suspension (50,000cells/well) was added. After 24 h, when a partial monolayer was formed, the supernatant was flicked off, the monolayer was then washed once again with the medium and 100 µL of different test concentrations of test drugs were added on to the partial monolayer in microtiter plates. The plates were then incubated at 37 °C for 24 h in 5% CO2 atmosphere. After incubation, the test solutions in the wells were discarded and 100 µL of MTT (5 mg/10 ml of MTT in PBS) was added to each well. The plates were then incubated for 4 h at 37 °C in 5% CO2 atmosphere. The supernatant was then removed and 100 µL of DMSO was added and the plates were gently shaken to solubilize the formed formazan. The absorbance was measured using a microtiter plate reader at a wavelength of 590 nm. The percentage growth inhibition was thus calculated using the following formula and the concentration of the test drug required to inhibit the cell growth by 50% (IC50) values is generated from the dose–response curves for each one of the cell lines (Meerloo et al. [2011]).
(§2) The test compounds were screened for their in vitro cytotoxicity by MTT assay against two cancer cell lines, namely MCF-7, HCT-116 and normal epithelial kidney cells (Vero). Doxorubicin was used as a reference standard.

Assay [3] relates to HCT 116. Put plainly: MTT cytotoxicity assay on HCT 116. The following applies: read-out: Inhibition of cell proliferation, IC50, HCT 116. It is filed as cell-based, Human. How it is done: as §1, §2
A short description of assay [4]: ABTS.+ radical scavenging assay. How it is done:
The assay was performed in a 96-well plate by serial dilution method. A 2 mM ABTS^.+ working solution was prepared in a phosphate buffer (Zheleva-Dimitrova et al [2010]).To this, 200 μL of aqueous potassium per sulfate (70 mM) solution was added and the solution was incubated for 24 h in the dark at room temperature to develop a blue-green color. To 30 μL of ABTS^.+ working solution, 50 μL of different concentrations (3.9–1000 μM) of the test sample solution and 170 μL of phosphate buffer (pH-7.4) were added in a well. The plate was then incubated in the dark at room temperature for 10 min. Then absorbance was measured at 690 nm using Elisa reader. Quercetin and ascorbic acid were used as standards. The percentage scavenging of ABTS^.+ was calculated using the formula, (Control Absorbance–Test Absorbance)*100/(Control Absorbance) and the anti-oxidant activity was expressed in terms of IC50 value.

Assay [5] in a line: DPPH. free radical scavenging assay. How it is done:
DPPH. assay was performed using 96-well plate by serial dilution method. The dilution of methanolic stock solution of the test compounds and standard anti-oxidants was carried out to obtain concentration in the range of 3.9–1000 µM. Quercetin and ascorbic acid were used as standards. To a 100 μL of this solution, 100 μL of 200 µM DPPH^. in methanolic solution was added. The experiment was done in triplicate and the plate was then incubated for 30 min in the dark and later the absorbance was measured at 517 nm using Elisa reader. The percentage DPPH^. Scavenging was calculated using the formula, (Control Absorbance–Test Absorbance)*100/(Control Absorbance). The anti-oxidant activity of the test compounds was expressed in terms of concentration required for 50 percentage inhibition (IC50) (Collins [2005]).

Assay [6] relates to MCF-7. The assay can be described thus: MTT cytotoxicity assay on MCF-7. It is filed as cell-based. The following applies: read-out: Inhibition of cell proliferation, IC50, MCF-7. How it is done: as §1, §2
Background: Tetrazolium assays rely on reduction of a dye to a coloured formazan, in cell work by metabolically active cells.

For assay [7], the system named is HCT-116 cells. Put plainly: Apoptosis detection by propidium iodide / Annexin V-FITC. The following applies: 20 μM. Details: FACS analysis of apoptosis detection, Viable cells / FACS analysis of apoptosis detection, Early apoptotic / FACS analysis of apoptosis detection, Late apoptotic / FACS analysis of apoptosis detection, Necrotic: unit not given here. It is filed as cell-based, Human. How it is done:
The day before induction of apoptosis, 1 × 10^6cells per well were plated on a 6-well plate using respective media with 10% FBS and 1% PenStrep, incubated overnight at 37 °C at 5% CO2.The media was replaced with test solutions of different concentrations in the media containing 10% FBS. The treated cells were incubated for 24 h at normal culture conditions. The cells were further harvested and the well contents were completely transferred into the sterile FACS tubes. The cell contents were centrifuged at 2000 rpm for 5 min and the supernatant was discarded. After centrifugation, the cells were washed twice with cold PBS and then resuspended in 1 ml of binding buffer at a concentration of 1× 10^6 cells/ml. […] of the cell suspension (5× 10^5 cells) were then transferred into a fresh FACS tube (Vermes et al. [1995]). Further, cells were gently mixed with […] of propidium iodide and […] of Annexin V before being incubated for 20 minutes at room temperature in the dark. The cells were immediately analyzed by flow cytometer within a duration of an hour.

Where two headings read alike, the source gives them in different places.

For the compound `COc1cc(OC)c(C2=CCN(C(C)C)CC2)c2c1C(=O)/C(=C/c1ccc3ccccc3c1)O2` [NISOA1], in assay [1], the “% inhibition on CDK2/cyclin A” value is recorded as 38.987%. Also, the IC50 was 172 µM in assay [2]; 63.2 µM in assay [3] (24 h); 112 ± 5.45 µM in assay [4]; 128 ± 17.9 µM in assay [5]; 46.8 µM in assay [6] (24 h).
Consider `COc1cccc2c1C(=O)c1c(O)c3c(c(O)c1C2=O)C[C@@](O)(C(=O)CO)C[C@@H]3O[C@H]1C[C@H](N)[C@H](O)[C@H](C)O1` [Doxorubicin, reference compound], for which, in assay [7], the “FACS analysis of apoptosis detection, Early apoptotic” value is listed as 4.44; the “FACS analysis of apoptosis detection, Late apoptotic” value was found to be 26.61; the “FACS analysis of apoptosis detection, Necrotic” value is on record as 19.86; the “FACS analysis of apoptosis detection, Viable cells” value is listed as 49.09. The same compound showed an apoptotic index in assay [7] of 26.61%. The IC50 in assay [2] (Chlorocebus sabaeus, Vero) was determined as 165 µM. Moreover, the IC50 in assay [3] (Homo sapiens, HCT-116, 24 h) was determined as 8.11 µM. Further, the IC50 in assay [6] (Homo sapiens, MCF7, 24 h) worked out at 0.68 µM.
For the compound `COc1cc(OC)c(C2=CCN(C)CC2)c2c1C(=O)/C(=C/c1ccccc1C)O2` [NMA3], the “% inhibition on CDK2/cyclin A” value in assay [1] was 24.987%. In addition, the IC50 came to 188 µM in assay [2]; 89 µM in assay [3] (24 h); 89.8 ± 1.48 µM in assay [4]; 103 ± 7.78 µM in assay [5]; 62.7 µM in assay [6] (24 h).
`COc1cc(OC)c(C2=CCN(C(C)C)CC2)c2c1C(=O)/C(=C/c1ccc(Cl)cc1)O2` [NISOA6]: the “% inhibition on CDK2/cyclin A” value in assay [1] came out at 36.546%. Further, the IC50 in assay [2] stood at 179 µM; in assay [3] (24 h) it was 41.8 µM; in assay [4], 146 ± 14.8 µM; in assay [5] it was 183 ± 11.9 µM; in assay [6] (24 h), 43.9 µM.
Consider `COc1cc(OC)c(C2=CCN(C)CC2)c2c1C(=O)/C(=C/c1ccc(N(C)C)cc1)O2` [NMA4], for which the “% inhibition on CDK2/cyclin A” value in assay [1] came out at 29.543%. The IC50 is > 200 µM in assay [2]; 89.5 µM in assay [3] (24 h); 137 ± 6.23 µM in assay [4]; 154 ± 12.7 µM in assay [5]; 63.8 µM in assay [6] (24 h).
For `COc1ccc(/C=C2\Oc3c(c(OC)cc(OC)c3C3=CCN(C(C)C)CC3)C2=O)cc1` [NISOA5], the “% inhibition on CDK2/cyclin A” value in assay [1] is given as 39.054%. Besides, the IC50 is 167 µM in assay [2]; 55.4 µM in assay [3] (24 h); 109 ± 9.23 µM in assay [4]; 129 ± 6.78 µM in assay [5]; 39.6 µM in assay [6] (24 h).
Regarding `CCCN1CC=C(c2c(OC)cc(OC)c3c2O/C(=C\c2ccc(N(C)C)cc2)C3=O)CC1` [NPA2], the “% inhibition on CDK2/cyclin A” value in assay [1] stood at 13.664%. Besides, the IC50 in assay [2] was 172 µM; in assay [3] (24 h) it was 87.3 µM; in assay [4], 99.3 ± 1.14 µM; in assay [5], 119 ± 12.9 µM; in assay [6] (24 h) it was 46.9 µM.
Regarding `COc1cc(OC)c(C2=CCN(C)CC2)c2c1C(=O)/C(=C/c1ccccc1)O2` [NMA1], the “% inhibition on CDK2/cyclin A” value in assay [1] was determined as 27.654%. Besides, the IC50 in assay [2] was found to be 187 µM; in assay [3] (24 h), 86.9 µM; in assay [4], 131 ± 1.74 µM; in assay [5], 151 ± 3.54 µM; in assay [6] (24 h), 67.8 µM.
Take `CCN1CC=C(c2c(OC)cc(OC)c3c2O/C(=C\c2ccc(Br)cc2)C3=O)CC1` [NEA4]: in assay [1], the “% inhibition on CDK2/cyclin A” value was found to be 27.236%. In addition, the IC50 was found to be 188 µM in assay [2]; 93.6 µM in assay [3] (24 h); 71.67 ± 0.34 µM in assay [4]; 94.7 ± 4.9 µM in assay [5]; 82.7 µM in assay [6] (24 h).
Consider `COc1ccc(/C=C2\Oc3c(c(OC)cc(OC)c3C3=CCN(C)CC3)C2=O)cc1` [NMA5], for which the “% inhibition on CDK2/cyclin A” value in assay [1] amounted to 25.098%. The IC50 is > 200 µM in assay [2]; 139 µM in assay [3] (24 h); 87 ± 0.18 µM in assay [4]; 98.2 ± 1.99 µM in assay [5]; 155 µM in assay [6] (24 h).
`CCCN1CC=C(c2c(OC)cc(OC)c3c2O/C(=C\c2ccc(OC)c(OC)c2)C3=O)CC1` [NPA5]: the “% inhibition on CDK2/cyclin A” value in assay [1] was 12.547%. For the same compound, the IC50 is 99.9 µM in assay [2]; 74.3 µM in assay [3] (24 h); 76.1 ± 1.75 µM in assay [4]; 89.7 ± 9.65 µM in assay [5]; 68.5 µM in assay [6] (24 h).
